Measured values published in the supplement of paper PMC10307832.

Experiments:
Assay in all cases: relative viability (nuclei count vs DMSO), 5 days (fraction); higher = more cells survive
AZD5582 + Foretinib = compound: C[C@@H](C(=O)N[C@@H](C1CCCCC1)C(=O)N2CCC[C@H]2C(=O)N[C@@H]3[C@@H](CC4=CC=CC=C34)OCC#CC#CCO[C@@H]5CC6=CC=CC=C6[C@@H]5NC(=O)[C@@H]7CCCN7C(=O)[C@H](C8CCCCC8)NC(=O)[C@H](C)NC)NC [AZD5582] + COc1cc2c(Oc3ccc(NC(=O)C4(C(=O)Nc5ccc(F)cc5)CC4)cc3F)ccnc2cc1OCCCN1CCOCC1 [Foretinib] (partner 0.25 µM)
In short: (§1)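 After 5 days of treatment, lung cancer cells in 1536-well plates were fixed and stained in a single step (final 0.05% Triton X-100, 1% formaldehyde, 1 ug/ml Hoechst) and their nuclei counted on 4× images. Treatment had been applied by pin tool the day after seeding as one drug alone or as a fixed anchor-drug dose with five library-drug doses (not always all listed) in √10 steps. Relative viability is the nuclei count of treated wells divided by that of vehicle wells, and values are medians of duplicate plates.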

AZD5582 + Vorinostat = compound: C[C@@H](C(=O)N[C@@H](C1CCCCC1)C(=O)N2CCC[C@H]2C(=O)N[C@@H]3[C@@H](CC4=CC=CC=C34)OCC#CC#CCO[C@@H]5CC6=CC=CC=C6[C@@H]5NC(=O)[C@@H]7CCCN7C(=O)[C@H](C8CCCCC8)NC(=O)[C@H](C)NC)NC [AZD5582] + O=C(CCCCCCC(=O)Nc1ccccc1)NO [Vorinostat] (partner 1 µM)
In short: as §1

[1] = compound: Cn1nnc2c(C(N)=O)ncn2c1=O [Temozolomide] + CC(=O)Nc1cccc(-n2c(=O)n(C3CC3)c(=O)c3c(Nc4ccc(I)cc4F)n(C)c(=O)c(C)c32)c1 [Trametinib] (partner 0.02 µM)
In short: as §1

[2] = compound: Cn1nnc2c(C(N)=O)ncn2c1=O [Temozolomide] + CC1(C)CCC(c2ccc(Cl)cc2)=C(CN2CCN(c3ccc(C(=O)NS(=O)(=O)c4ccc(N[C@H](CCN5CCOCC5)CSc5ccccc5)c(S(=O)(=O)C(F)(F)F)c4)cc3)CC2)C1 [Navitoclax] (partner 0.5 µM)
In short: as §1

NCI-H322M
relative viability (AZD5582 + Foretinib; first compound 0.001581 µM): 1.07
relative viability (AZD5582 + Foretinib; first compound 0.005 µM): 1.06
relative viability (AZD5582 + Foretinib; first compound 0.05 µM): 1.29
relative viability (AZD5582 + Vorinostat; first compound 0.001581 µM): 0.924
relative viability (AZD5582 + Vorinostat; first compound 0.005 µM): 1.01
relative viability (AZD5582 + Vorinostat; first compound 0.01581 µM): 0.97
relative viability (AZD5582 + Vorinostat; first compound 0.05 µM): 1.17
relative viability ([1]; first compound 0.2 µM): 0.446
relative viability ([1]; first compound 0.6325 µM): 0.526
relative viability ([1]; first compound 2 µM): 0.569
relative viability ([1]; first compound 6.325 µM): 0.532
relative viability ([1]; first compound 20 µM): 0.451
relative viability ([2]; first compound 0.6325 µM): 1.36
relative viability ([2]; first compound 2 µM): 1.28
relative viability ([2]; first compound 6.325 µM): 1.21
relative viability ([2]; first compound 20 µM): 0.967

NCI-H441
relative viability (AZD5582 + Foretinib; first compound 0.001581 µM): 0.847
relative viability (AZD5582 + Foretinib; first compound 0.005 µM): 1.03
relative viability (AZD5582 + Foretinib; first compound 0.05 µM): 0.883
relative viability (AZD5582 + Vorinostat; first compound 0.001581 µM): 0.723
relative viability (AZD5582 + Vorinostat; first compound 0.005 µM): 0.708
relative viability (AZD5582 + Vorinostat; first compound 0.01581 µM): 0.889
relative viability (AZD5582 + Vorinostat; first compound 0.05 µM): 0.921
relative viability ([1]; first compound 0.2 µM): 0.543
relative viability ([1]; first compound 0.6325 µM): 0.642
relative viability ([1]; first compound 2 µM): 0.478
relative viability ([1]; first compound 6.325 µM): 0.425
relative viability ([1]; first compound 20 µM): 0.459
relative viability ([2]; first compound 0.2 µM): 0.692
relative viability ([2]; first compound 0.6325 µM): 0.628
relative viability ([2]; first compound 2 µM): 0.926
relative viability ([2]; first compound 6.325 µM): 0.542
relative viability ([2]; first compound 20 µM): 0.789

NCI-H460
relative viability (AZD5582 + Foretinib; first compound 0.001581 µM): 0.916
relative viability (AZD5582 + Foretinib; first compound 0.005 µM): 1.03
relative viability (AZD5582 + Foretinib; first compound 0.01581 µM): 0.952
relative viability (AZD5582 + Foretinib; first compound 0.05 µM): 0.97
relative viability (AZD5582 + Vorinostat; first compound 0.001581 µM): 0.655
relative viability (AZD5582 + Vorinostat; first compound 0.005 µM): 0.686
relative viability (AZD5582 + Vorinostat; first compound 0.01581 µM): 0.697
relative viability (AZD5582 + Vorinostat; first compound 0.05 µM): 1.01
relative viability ([1]; first compound 0.2 µM): 0.136
relative viability ([1]; first compound 0.6325 µM): 0.236
relative viability ([1]; first compound 2 µM): 0.158
relative viability ([1]; first compound 6.325 µM): 0.0735
relative viability ([1]; first compound 20 µM): 0.134
relative viability ([2]; first compound 0.2 µM): 1.28
relative viability ([2]; first compound 0.6325 µM): 1.08
relative viability ([2]; first compound 2 µM): 1.22
relative viability ([2]; first compound 6.325 µM): 1.22
relative viability ([2]; first compound 20 µM): 1.18

NCI-H520
relative viability (AZD5582 + Foretinib; first compound 0.001581 µM): 0.651
relative viability (AZD5582 + Foretinib; first compound 0.005 µM): 0.777
relative viability (AZD5582 + Foretinib; first compound 0.01581 µM): 0.81
relative viability (AZD5582 + Foretinib; first compound 0.05 µM): 0.697
relative viability (AZD5582 + Vorinostat; first compound 0.001581 µM): 0.833
relative viability (AZD5582 + Vorinostat; first compound 0.005 µM): 0.724
relative viability (AZD5582 + Vorinostat; first compound 0.01581 µM): 0.758
relative viability (AZD5582 + Vorinostat; first compound 0.05 µM): 0.712
relative viability ([1]; first compound 0.2 µM): 0.715
relative viability ([1]; first compound 0.6325 µM): 0.717
relative viability ([1]; first compound 2 µM): 0.676
relative viability ([1]; first compound 6.325 µM): 0.683
relative viability ([1]; first compound 20 µM): 0.597
relative viability ([2]; first compound 0.2 µM): 1.13
relative viability ([2]; first compound 0.6325 µM): 1.09
relative viability ([2]; first compound 2 µM): 1.15
relative viability ([2]; first compound 6.325 µM): 1.12
relative viability ([2]; first compound 20 µM): 1.01

NCI-H596
relative viability (AZD5582 + Foretinib; first compound 0.01581 µM): 1.19
relative viability (AZD5582 + Foretinib; first compound 0.05 µM): 0.279
relative viability (AZD5582 + Vorinostat; first compound 0.001581 µM): 0.506
relative viability (AZD5582 + Vorinostat; first compound 0.01581 µM): 0.629
relative viability (AZD5582 + Vorinostat; first compound 0.05 µM): 0.527
relative viability ([1]; first compound 0.2 µM): 0.916
relative viability ([1]; first compound 0.6325 µM): 0.714
relative viability ([1]; first compound 2 µM): 0.943
relative viability ([1]; first compound 6.325 µM): 0.789
relative viability ([1]; first compound 20 µM): 0.877
relative viability ([2]; first compound 0.2 µM): 0.9
relative viability ([2]; first compound 0.6325 µM): 0.924
relative viability ([2]; first compound 2 µM): 0.946
relative viability ([2]; first compound 6.325 µM): 0.977
relative viability ([2]; first compound 20 µM): 0.981

NCI-H647
relative viability (AZD5582 + Foretinib; first compound 0.001581 µM): 1.08
relative viability (AZD5582 + Foretinib; first compound 0.005 µM): 1.16
relative viability (AZD5582 + Foretinib; first compound 0.01581 µM): 1.1
relative viability (AZD5582 + Foretinib; first compound 0.05 µM): 1.21
relative viability (AZD5582 + Vorinostat; first compound 0.001581 µM): 0.353
relative viability (AZD5582 + Vorinostat; first compound 0.005 µM): 0.515
relative viability (AZD5582 + Vorinostat; first compound 0.01581 µM): 0.635
relative viability (AZD5582 + Vorinostat; first compound 0.05 µM): 0.585
relative viability ([1]; first compound 0.2 µM): 0.528
relative viability ([1]; first compound 0.6325 µM): 0.537
relative viability ([1]; first compound 2 µM): 0.56
relative viability ([1]; first compound 6.325 µM): 0.353
relative viability ([1]; first compound 20 µM): 0.227
relative viability ([2]; first compound 0.2 µM): 1.16
relative viability ([2]; first compound 0.6325 µM): 1.24
relative viability ([2]; first compound 2 µM): 1.24
relative viability ([2]; first compound 6.325 µM): 0.73
relative viability ([2]; first compound 20 µM): 0.291

NCI-H727
relative viability (AZD5582 + Foretinib; first compound 0.001581 µM): 0.867
relative viability (AZD5582 + Foretinib; first compound 0.005 µM): 1.03
relative viability (AZD5582 + Foretinib; first compound 0.01581 µM): 1.01
relative viability (AZD5582 + Foretinib; first compound 0.05 µM): 0.825
relative viability (AZD5582 + Vorinostat; first compound 0.001581 µM): 1.06
relative viability (AZD5582 + Vorinostat; first compound 0.005 µM): 1.13
relative viability (AZD5582 + Vorinostat; first compound 0.01581 µM): 1.01
relative viability (AZD5582 + Vorinostat; first compound 0.05 µM): 1.16
relative viability ([1]; first compound 0.6325 µM): 0.426
relative viability ([1]; first compound 2 µM): 0.397
relative viability ([1]; first compound 6.325 µM): 0.435
relative viability ([1]; first compound 20 µM): 0.403
relative viability ([2]; first compound 0.2 µM): 0.409
relative viability ([2]; first compound 0.6325 µM): 0.428
relative viability ([2]; first compound 2 µM): 0.496
relative viability ([2]; first compound 6.325 µM): 0.469
relative viability ([2]; first compound 20 µM): 0.324

NCI-H838
relative viability (AZD5582 + Foretinib; first compound 0.001581 µM): 0.985
relative viability (AZD5582 + Foretinib; first compound 0.005 µM): 1.19
relative viability (AZD5582 + Foretinib; first compound 0.05 µM): 1.06
relative viability (AZD5582 + Vorinostat; first compound 0.001581 µM): 0.716
relative viability (AZD5582 + Vorinostat; first compound 0.005 µM): 0.775
relative viability (AZD5582 + Vorinostat; first compound 0.01581 µM): 0.855
relative viability (AZD5582 + Vorinostat; first compound 0.05 µM): 0.956
relative viability ([1]; first compound 0.2 µM): 0.498
relative viability ([1]; first compound 0.6325 µM): 0.559
relative viability ([1]; first compound 2 µM): 0.586
relative viability ([1]; first compound 6.325 µM): 0.482
relative viability ([1]; first compound 20 µM): 0.585
relative viability ([2]; first compound 0.2 µM): 1.13
relative viability ([2]; first compound 0.6325 µM): 1.11
relative viability ([2]; first compound 2 µM): 1.17
relative viability ([2]; first compound 6.325 µM): 1.19
relative viability ([2]; first compound 20 µM): 1.17

NCI-H1355
relative viability (AZD5582 + Foretinib; first compound 0.001581 µM): 0.894
relative viability (AZD5582 + Foretinib; first compound 0.005 µM): 0.881
relative viability (AZD5582 + Foretinib; first compound 0.01581 µM): 0.938
relative viability (AZD5582 + Foretinib; first compound 0.05 µM): 0.705
relative viability (AZD5582 + Vorinostat; first compound 0.001581 µM): 0.568
relative viability (AZD5582 + Vorinostat; first compound 0.005 µM): 0.711
relative viability (AZD5582 + Vorinostat; first compound 0.01581 µM): 0.535
relative viability (AZD5582 + Vorinostat; first compound 0.05 µM): 0.596
relative viability ([1]; first compound 0.2 µM): 0.436
relative viability ([1]; first compound 0.6325 µM): 0.464
relative viability ([1]; first compound 2 µM): 0.483
relative viability ([1]; first compound 6.325 µM): 0.452
relative viability ([1]; first compound 20 µM): 0.403
relative viability ([2]; first compound 0.2 µM): 0.837
relative viability ([2]; first compound 0.6325 µM): 0.927
relative viability ([2]; first compound 2 µM): 0.964
relative viability ([2]; first compound 6.325 µM): 0.927
relative viability ([2]; first compound 20 µM): 0.913
